Reference: PMC12645083, “Microwave‐Enhanced Synthesis of 2‐Styrylquinoline‐4‐Carboxamides With Promising Anti‐Lymphoma Activity” (Archiv Der Pharmazie, 2025)

Experiments:
[1] = test system: SU-DHL-1; assay: Antiproliferative activity on lymphoma-derived cell lines, resazurin; format: cell-based; details: Homo sapiens, histiocytic large cell lymphoma, 72 h of treatment, mean ± SEM
Description: (§1) To test the newly synthesized compounds, various human cell lines were employed. HD‐MB03 cells were purchased from DSMZ (Braunschweig, Germany), while A549, MDA‐MB‐231, RPMI‐8420, SU‐DHL‐8, TOLEDO, VL51, SU‐DHL‐1, SU‐DHL‐18, and KM‐H2 were obtained from ATCC (Manassas, VA, USA). Cells were cultured in DMEM (for MDA‐MB‐231 and A549) or RPMI‐1640 (for RPMI‐8420, SU‐DHL‐8, TOLEDO, VL51, SU‐DHL‐1, SU‐DHL‐18, KM‐H2, and HD‐MB03) media (Gibco, Milan, Italy). Both media were supplemented with 115 units/mL penicillin G (Gibco, Milan, Italy), 115 µg/mL streptomycin (Invitrogen, Milan, Italy), and 10% fetal bovine serum (Invitrogen, Milan, Italy). Peripheral blood mononuclear cells (PBMCs) were isolated from healthy donors as previously described. For cytotoxicity assays, PBMCs were resuspended at 5 × 10⁵ cells/mL in complete RPMI medium with or without 2.5 µg/mL phytohemagglutinin (PHA) (Irvine Scientific) to stimulate T‐cell activation and proliferation. All cell lines were maintained at 37°C in a humidified atmosphere containing 5% CO₂. All compounds were dissolved in DMSO at a 10 mM stock concentration. For dose–response assays, cells were seeded in 96‐well plates at densities optimized for each cell line: HD‐MB03 at 10,000 cells/well, A549 at 4000 cells/well, and MDA‐MB‐231 at 7000 cells/well. All other cell lines were seeded at 20,000 cells/well in a final volume of 100 µL per well. After 24 h, cells were treated with a 6‐point serial dilution of compounds starting from 10 µM, in triplicate for statistical analysis. Seventy‐2 h posttreatment, 10 µL of resazurin solution (100 µg/mL) was added to each well, and cells were incubated for an additional 3–6 h. Fluorescence was measured using a Spark 10 M microplate reader (Tecan Group Ltd., Männedorf, Switzerland) with excitation at 535 nm and emission at 600 nm. The IC₅₀ was defined as the concentration of compound required to inhibit cell proliferation by 50% compared to cells treated with the highest DMSO concentration.
(§2) To test the newly synthesized compounds, various human cell lines were employed. HD-MB03 cells were purchased from DSMZ (Braunschweig, Germany), while A549, MDA-MB-231, RPMI-8420, SU-DHL-8, TOLEDO, VL51, SU-DHL-1, SU-DHL-18, and KM-H2 were obtained from ATCC (Manassas, VA, USA). Cells were cultured in DMEM (for MDA-MB-231 and A549) or RPMI-1640 (for RPMI-8420, SU-DHL-8, TOLEDO, VL51, SU-DHL-1, SU-DHL-18, KM-H2, and HD-MB03) media (Gibco, Milan, Italy). Both media were supplemented with 115 units/mL penicillin G (Gibco, Milan, Italy), 115 µg/mL streptomycin (Invitrogen, Milan, Italy), and 10% fetal bovine serum (Invitrogen, Milan, Italy). Peripheral blood mononuclear cells (PBMCs) were isolated from healthy donors as previously described. ^[1] For cytotoxicity assays, PBMCs were resuspended at 5 × 10⁵ cells/mL in complete RPMI medium with or without 2.5 µg/mL phytohemagglutinin (PHA) (Irvine Scientific) to stimulate T cell activation and proliferation. All cell lines were maintained at 37 °C in a humidified atmosphere containing 5% CO₂. All compounds were dissolved in DMSO at a 10 mM stock concentration. For dose–response assays, cells were seeded in 96-well plates at densities optimized for each cell line: HD-MB03 at 10,000 cells/well, A549 at 4,000 cells/well, and MDA-MB-231 at 7,000 cells/well. All other cell lines were seeded at 20,000 cells/well in a final volume of 100 µL per well. After 24 hours, cells were treated with a 6-point serial dilution of compounds starting from 10 µM, in triplicate for statistical analysis. Seventy-two hours post-treatment, 10 µL of resazurin solution (100 µg/mL) was added to each well, and cells were incubated for an additional 3–6 hours. Fluorescence was measured using a Spark 10M microplate reader (Tecan Group Ltd., Männedorf, Switzerland) with excitation at 535 nm and emission at 600 nm. […]

[2] = test system: KM-H2; assay: as above; format: cell-based; details: Homo sapiens, Hodgkin lymphoma, 72 h of treatment, mean ± SEM
Description: as §1, §2

[3] = test system: TOLEDO; assay: Mitochondrial membrane potential analysis (TMRE); format: cell-based, human; details: 24 h of treatment
Description: (§3) Cells were plated in 12‐well plates at 0.2 × 10⁶ cells/mL in 1 mL of complete medium. After 24 h, cells were treated with the indicated compound concentrations. Following a further 24‐h incubation, cells were stained with TMRE (Invitrogen, US) at 1 µM for 20 min. After washing with 1X PBS, fluorescence was detected using a CytoFLEX flow cytometer (Beckman Coulter) and analyzed with FlowJo software v.10.7.1.

[4] = test system: VL51; assay: Mitochondrial membrane potential analysis (TMRE); format: cell-based, human; details: 24 h of treatment
Description: as §3

[5] = test system: TOLEDO; assay: Apoptosis assay, Annexin V/PI staining; format: cell-based, human; details: 2 µM, 48 h
Description: (§4) For apoptosis evaluation, cells were plated in 12‐well plates at 0.2 × 10⁶ cells/mL in 1 mL of complete medium. After 24 h, cells were treated with the indicated compound concentrations. After 48 h, cells were harvested, centrifuged, and stained with Annexin V‐FITC and propidium iodide (PI) using the Annexin‐V Fluos kit (Roche Diagnostics), following the manufacturer's instructions. Fluorescence was analyzed using a Coulter Cytomics FC500 flow cytometer (Beckman Coulter) with detection in the FL1 and FL3 channels, respectively.

[6] = test system: VL51; assay: Apoptosis assay, Annexin V/PI staining; format: cell-based, human; details: 2 µM, 48 h
Description: as §4

[7] = test system: VL51; assay: Cell-cycle analysis (flow cytometry); format: cell-based, human; details: 2 µM, 48 h
Description: (§5) Cells were plated in 12‐well plates at 0.2 × 10⁶ cells/mL in 1 mL of complete medium. After 24 h, cells were treated with the specified compound concentrations. Following an additional 24 h, cells were harvested, centrifuged, and fixed in 70% ice‐cold ethanol. Cells were then stained and processed as previously described. Data acquisition was performed using a Coulter Cytomics FC500 flow cytometer (Beckman Coulter).

[8] = test system: TOLEDO; assay: Cell-cycle analysis (flow cytometry); format: cell-based, human; details: 2 µM, 48 h
Description: as §5, with “Following an additional 24 h, cells were harvested, centrifuged, and fixed in 70% ice‐cold ethanol.” left out

IC50 [1] [µM]	IC50 [2] [µM]	SMILES	Mitochondrial membrane depolarization (TMRE-negative cells) [3]	Mitochondrial membrane depolarization (TMRE-negative cells) [4]	Mode of cell death (Annexin V/PI) [5]	Mode of cell death (Annexin V/PI) [6]	Cell-cycle distribution [7]	Cell-cycle distribution [8]
4.9 ± 0.31	6.74 ± 2.12	O=C(Nc1ccc(Cl)cc1)c1cc(/C=C/c2ccccc2[N+](=O)[O-])nc2ccccc12 [4ah, (E)-N-(4-chlorophenyl)-2-(2-nitrostyryl)quinoline-4-carboxamide]	–	–	–	–	–	–
2.32 ± 1.46	2.8 ± 0.21	O=C(Nc1ccc([N+](=O)[O-])cc1)c1cc(/C=C/c2ccccc2)nc2ccccc12 [4i, (E)-N-(4-nitrophenyl)-2-styrylquinoline-4-carboxamide]	increased percentage of TMRE‐negative cells	increased percentage of TMRE‐negative cells	induced late apoptosis and necrosis	induced late apoptosis and necrosis	significant accumulation of cells in the G₂/M phase	significant accumulation of cells in the G₂/M phase
> 10	> 10	COc1cc(/C=C/c2cc(C(=O)Nc3c(C)cccc3C)c3ccccc3n2)cc(OC)c1OC [4n, (E)-N-(2,6-dimethylphenyl)-2-(3,4,5-trimethoxystyryl)quinoline-4-carboxamide]	–	–	–	–	–	–
> 10	> 10	COc1cc(/C=C/c2cc(C(=O)Nc3ccc([N+](=O)[O-])cc3)c3ccccc3n2)cc(OC)c1OC [4s, (E)-N-(4-nitrophenyl)-2-(3,4,5-trimethoxystyryl)quinoline-4-carboxamide]	–	–	–	–	–	–
